Test results from ChEMBL document CHEMBL1125663, “Function of negative charge in the "address domain" of deltorphins” (J Med Chem, 1991).
Square brackets hold non-standard residues; d marks the D form. Peptide text beside a SMILES is read from it.

What was measured:
Assay type in all cases: cell membranes
Mu-type opioid receptor [1] = target: T1, Mu-type opioid receptor (Rattus norvegicus, UniProt P33535); assay: Binding affinity against Opioid receptor mu 1 in P2 membrane preparation of rat brain by [3H]DAGO displacement.
[2] = target: T2, Delta-type opioid receptor (Rattus norvegicus, UniProt P33533); assay: Binding affinity against Opioid receptor delta 1 in P2 membrane preparation of rat brain by [3H]DADLE displacement.
Mu-type opioid receptor [3] = target: T1, Mu-type opioid receptor; assay: Inhibition of [3H]DAGO binding to trat brain opioid receptor mu in P2 membrane
[4] = target: T2, Delta-type opioid receptor; assay: Inhibition of [3H]-DADLE binding to opioid receptor delta in P2 membrane preparation of rat brain

T2 sequence (P33533 whole entry): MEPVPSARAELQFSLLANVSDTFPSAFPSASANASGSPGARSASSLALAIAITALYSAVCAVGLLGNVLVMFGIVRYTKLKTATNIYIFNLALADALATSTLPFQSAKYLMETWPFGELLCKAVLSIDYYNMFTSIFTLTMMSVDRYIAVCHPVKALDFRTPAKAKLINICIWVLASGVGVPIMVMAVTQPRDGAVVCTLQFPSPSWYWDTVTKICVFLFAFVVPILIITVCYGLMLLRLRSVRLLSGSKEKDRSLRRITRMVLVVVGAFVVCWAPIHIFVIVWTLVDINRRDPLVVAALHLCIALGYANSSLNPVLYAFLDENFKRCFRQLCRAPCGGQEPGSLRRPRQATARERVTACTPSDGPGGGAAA
T1 sequence (P33535 whole entry): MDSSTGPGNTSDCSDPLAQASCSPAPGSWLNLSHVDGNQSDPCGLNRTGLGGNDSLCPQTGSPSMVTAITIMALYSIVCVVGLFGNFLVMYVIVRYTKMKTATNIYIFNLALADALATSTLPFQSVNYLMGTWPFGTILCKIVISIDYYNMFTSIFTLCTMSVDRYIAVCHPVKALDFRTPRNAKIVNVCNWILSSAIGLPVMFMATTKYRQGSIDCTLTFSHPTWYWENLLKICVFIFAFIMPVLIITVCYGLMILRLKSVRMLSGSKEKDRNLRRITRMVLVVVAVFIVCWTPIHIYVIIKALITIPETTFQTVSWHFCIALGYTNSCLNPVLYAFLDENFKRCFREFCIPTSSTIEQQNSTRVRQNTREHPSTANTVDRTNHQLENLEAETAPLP

Compound | Ki (Mu-type opioid receptor [1]) [nM] | Ki [2] [nM] | Ki (Mu-type opioid receptor [3]) [nM] | Ki [4] [nM]
CSCC[C@@H](NC(=O)[C@@H](N)Cc1ccc(O)cc1)C(=O)N[C@@H](Cc1ccccc1)C(=O)N[C@@H](Cc1cnc[nH]1)C(=O)N[C@@H](CC(C)C)C(=O)N[C@@H](CC(=O)O)C(=O)N[C@@H](CC(=O)O)C(N)=O | 3410 | 3.08 | – | –
CC(C)[C@H](NC(=O)[C@H](CC(=O)O)NC(=O)[C@H](Cc1ccccc1)NC(=O)[C@H](C)NC(=O)[C@@H](N)Cc1ccc(O)cc1)C(=O)N[C@H](C(=O)NCC(=O)O)C(C)C | 1640 | 6.01 | – | –
CSCC[C@H](NC(=O)[C@H](CC(C)C)NC(=O)[C@H](Cc1cnc[nH]1)NC(=O)[C@H](Cc1ccccc1)NC(=O)[C@@H](CCSC)NC(=O)[C@@H](N)Cc1ccc(O)cc1)C(=O)N[C@@H](CC(=O)O)C(N)=O [DELTORPHIN A] (H-Y[dM]FHLMD-NH2) | 336 | 0.12 | – | –
C[C@@H](NC(=O)[C@@H](N)Cc1ccc(O)cc1)C(=O)N[C@@H](Cc1ccccc1)C(=O)NCC(=O)N[C@@H](Cc1ccc(O)cc1)C(=O)N1CCC[C@H]1C(=O)N[C@@H](CO)C(N)=O [DERMORPHIN] | 0.7 | – | – | –
CSCC[C@H](NC(=O)[C@H](CC(C)C)NC(=O)[C@H](Cc1c[nH]cn1)NC(=O)[C@H](Cc1ccccc1)NC(=O)[C@@H](CCSC)NC(=O)[C@@H](N)Cc1ccc(O)cc1)C(=O)N[C@@H](CC(N)=O)C(N)=O | 119 | 0.22 | – | –
CSCC[C@H](NC(=O)[C@H](CC(C)C)NC(=O)[C@H](CC(=O)O)NC(=O)[C@H](Cc1ccccc1)NC(=O)[C@@H](CCSC)NC(=O)[C@@H](N)Cc1ccc(O)cc1)C(=O)N[C@@H](CC(=O)O)C(N)=O | 10600 | 7.71 | – | –
CC(C)[C@H](NC(=O)[C@H](CCC(N)=O)NC(=O)[C@H](Cc1ccccc1)NC(=O)[C@@H](C)NC(=O)[C@@H](N)Cc1ccc(O)cc1)C(=O)N[C@H](C(=O)NCC(=O)O)C(C)C | 153 | 0.2 | – | –
CCCC[C@H](NC(=O)[C@H](CC(C)C)NC(=O)[C@H](Cc1cnc[nH]1)NC(=O)[C@H](Cc1ccccc1)NC(=O)[C@@H](CCSC)NC(=O)[C@@H](N)Cc1ccc(O)cc1)C(=O)N[C@@H](CC(=O)O)C(N)=O | 206 | 0.22 | – | –
CC(C)[C@H](NC(=O)CNC(=O)[C@H](Cc1ccccc1)NC(=O)[C@H](C)NC(=O)[C@@H](N)Cc1ccc(O)cc1)C(=O)N[C@H](C(=O)N[C@@H](CC(=O)O)C(=O)O)C(C)C (H-YAFGVVD-OH) | 57.5 | 8.79 | – | –
CC(C)[C@H](NC(=O)[C@H](CC(N)=O)NC(=O)[C@H](Cc1ccccc1)NC(=O)[C@H](C)NC(=O)[C@@H](N)Cc1ccc(O)cc1)C(=O)N[C@H](C(=O)NCC(N)=O)C(C)C (H-YAFNVVG-NH2) | – | – | 176 | 0.65
CC(C)[C@H](NC(=O)[C@H](CCC(=O)O)NC(=O)[C@H](Cc1ccccc1)NC(=O)[C@@H](C)NC(=O)[C@@H](N)Cc1ccc(O)cc1)C(=O)N[C@H](C(=O)NCC(=O)O)C(C)C [DELTORPHIN] | – | – | – | 7.97
C[C@@H](NC(=O)[C@@H](N)Cc1ccc(O)cc1)C(=O)NCC(=O)N(C)[C@@H](Cc1ccccc1)C(=O)NCCO [DAMGO] | – | 180 | – | –
CC(C)[C@H](NC(=O)[C@H](CCC(=O)O)NC(=O)[C@H](Cc1ccccc1)NC(=O)[C@H](C)NC(=O)[C@@H](N)Cc1ccc(O)cc1)C(=O)N[C@H](C(=O)NCC(=O)O)C(C)C [DELTORPHINE II] | – | – | – | 0.31
CC(C)[C@H](NC(=O)[C@H](CC(=O)O)NC(=O)[C@@H](NC(=O)[C@H](Cc1ccccc1)NC(=O)[C@H](C)NC(=O)[C@@H](N)Cc1ccc(O)cc1)C(C)C)C(=O)NCC(N)=O (H-YAFVDVG-NH2) | 275 | 1.23 | – | –
CC(C)[C@H](NC(=O)[C@H](CC(=O)O)NC(=O)[C@H](Cc1ccccc1)NC(=O)[C@@H](C)NC(=O)[C@@H](N)Cc1ccc(O)cc1)C(=O)N[C@H](C(=O)NCC(N)=O)C(C)C [DELTORPHIN C] | – | – | 387 | 0.21
CC(C)[C@H](NC(=O)[C@H](Cc1ccccc1)NC(=O)[C@H](C)NC(=O)[C@@H](N)Cc1ccc(O)cc1)C(=O)N[C@H](C(=O)N[C@@H](CC(=O)O)C(=O)NCC(N)=O)C(C)C (H-YAFVVDG-NH2) | 149 | 9.42 | – | –
CSCC[C@H](NC(=O)[C@H](CC(C)C)NC(=O)[C@H](Cc1cnc[nH]1)NC(=O)[C@H](Cc1ccccc1)NC(=O)[C@@H](CCSC)NC(=O)[C@@H](N)Cc1ccc(O)cc1)C(=O)N[C@@H](CC(=O)O)C(C)=O | 3220 | 155 | – | –
CSCC[C@H](NC(=O)[C@H](CC(=O)O)NC(=O)[C@H](CC(=O)O)NC(=O)[C@H](Cc1ccccc1)NC(=O)[C@@H](CCSC)NC(=O)[C@@H](N)Cc1ccc(O)cc1)C(=O)N[C@@H](Cc1c[nH]cn1)C(N)=O | 1570 | 1900 | – | –
CSCC[C@H](NC(=O)[C@H](CC(C)C)NC(=O)[C@H](Cc1c[nH]cn1)NC(=O)[C@H](Cc1ccccc1)NC(=O)[C@@H](CCSC)NC(=O)[C@@H](N)Cc1ccc(O)cc1)C(=O)N[C@@H](CC(=O)O)C(=O)O (H-Y[dM]FHLMD-OH) | 2690 | 10.8 | – | –
CSCC[C@@H](NC(=O)[C@@H](N)Cc1ccc(O)cc1)C(=O)N[C@@H](Cc1ccccc1)C(=O)N[C@@H](Cc1cnc[nH]1)C(=O)N[C@@H](CC(C)C)C(=O)N[C@@H](CC(=O)O)C(=O)N[C@@H](CC(=O)O)C(=O)O | 2090 | 6.01 | – | –
